For data set [1], the system named is diabetic mouse. In words: Liver function: bilirubin in blood of diabetic mice (ELISA). The conditions noted are these: blood after 12 weeks, FIG. 13. The format is in vivo. The procedure: In order to confirm whether or not liver function was normal in the group treated with Quamoclit angulata-derived novel compound, bilirubin value was measured using ELISA kit (Cusabio biotech, Japan) using blood collected in Example above. […] Therefore, it may be appreciated that the composition of the present invention is safe composition not causing abnormal liver function.
On the technique in general: An ELISA detects its analyte on a solid surface through an enzyme-linked reagent.

The test system of data set [2] is TNF-α. The experiment in a line: TNF-α concentration in diabetic mice. The format is in vivo, mouse. The conditions noted are these: FIG. 19. How it is done:
TNF-α concentration of the diabetic mouse group raised under conditions of Example 7 above was measured based on the above-description.

The test system of data set [3] is adiponectin. The experiment in a line: Adiponectin concentration in blood of diabetic mice (ELISA). The format is in vivo, mouse. To be noted: FIG. 15. An excerpt:
It has consistently proven that adiponectin is secreted from fat cells and abundantly present in blood, is decreased in an obesity patient or type 2 diabetic. In addition, low hypoadiponectinemia is on the rise as a new risk factor of artherosclerotic disease, and a concentration of adiponectin in diabetic patients, in particular, patients accompanying macrovascular complications is decreased. That is, adiponectin has an anti-obesity action, an anti-diabetic action, anti-atherogenic action and an inhibition action of active oxygen generation. A concentration of adiponectin in the blood of the diabetic mouse group raised under conditions of Example 7 was measured using ELISA kit (R&D, USA).

Data set [4] relates to glucagon. In words: Plasma glucagon concentration in diabetic mice. It is filed as in vivo, mouse. An excerpt:
In type 2 diabetic patients, blood glucose is increased, insulin secretion by glucose intake is delayed, and glucagon is increased. It is generally known that decrease in a ratio of insulin to plasma glucagon is associated with deterioration of diabetes. Therefore, a concentration of glucagon of the diabetic mouse group raised under conditions of Example 7 above was confirmed.

Data set [5] deals with diabetic mouse. In words: Anti-cataract effect: eye lens turbidity in diabetic mice. The format is in vivo. The conditions noted are these: FIG. 20. The procedure: Eye lens was isolated from eyeball extracted from the diabetic mouse group raised under conditions of Example 7 above and moved to a well plate and then a photograph thereof was taken by LAS 3000 image analysis system. Turbidity of the eye lens was measured by analyzing the photograph using LAS 300 image analysis program.

The test system of data set [6] is diabetic mouse. The experiment in a line: Liver toxicity test: alanine transaminase in blood of diabetic mice. It is filed as in vivo. To be noted: oral 0.1-10 mg/kg, 12 weeks, FIG. 12. How it is done:
A 6-week-old mouse and a 6-week-old diabetic mouse which are the same as Example 5 above were adapted under predetermined temperature (25° C.) and humidity (50%) for 1 week and used in a liver toxicity test.
A normal mouse control group, a diabetic mouse control group, and each diabetic mouse group treated with Quamoclit angulata-derived novel compound by oral administration at each concentration of 0.1 mg/kg, 1 mg/kg and 10 mg/kg were prepared, wherein each group had five mice, and raised for 12 week. After raising the mice for 12 weeks, blood thereof was collected and a concentration of alanine transaminase was measured.
The alanine transaminase, which is a metabolic enzyme of amino acid, is used in a representative test for diagnosis and result observation.
In order to confirm effects of the Quamoclit angulata-derived novel compound on liver, a normal mouse control group, a diabetic mouse control group and each group treated with Quamoclit angulata-derived novel compound by oral administration at each concentration of 0.1 mg/kg, 1 mg/kg and 10 mg/kg were raised for 12 weeks and blood thereof were collected and a change in alanine transaminase measured using ELISA kit (Cusabio biotech, Japan).

Data set [7] deals with diabetic mouse. The experiment in a line: Insulin resistance (HOMA-IR) and β-cell functionality (HOMA-beta) in diabetic mice. The format is in vivo. To be noted: FIG. 14. The procedure:
Insulin and blood glucose of the diabetic mouse group raised under conditions of Example 7 above were measured by the fasting blood test or glucose tolerance test and insulin sensitivity index thereof was calculated.
Insulin resistance was evaluated using the insulin sensitivity index which is homeostasis assessment (HOMA)-IR and β-cell Functionality was evaluated by HOMA-beta.
HOMA-IR=(Fasting insulin (μIU/mL)×Fasting glucose ([…]))/22.5 HOMA-beta=20×Fasting insulin (U/mL)/Fasting glucose (mmol/L)−3.5

For data set [8], the system named is C57BL/6J mouse. In words: Oral glucose tolerance test in high-fat diet mice. It is filed as in vivo. The conditions noted are these: oral dosing 1, 2, 4, 8, 16, 24 hours before glucose 2 g/kg, result for the 24 hours group, FIG. 9. The procedure:
In order to conduct an oral glucose tolerance test, a 5-week-old mouse (Male C57BL/6J, 19 g, Koatech, Pyeongtaek-si, Gyeonggi-do, Korea) was purchased and adopted under predetermined temperature (25° C.) and humidity (50%) for 1 week and used in an experiment. A general diet group having a general feed as a food and a high-fat diet group having a high-fat feed as a feed were prepared, wherein each group had five mice, and raised for 2 weeks. At the time of two weeks after feeding with high-fat diet, the experimental mice were fasting for 16 hours, and the fasting blood glucose was measured, and then, the sample was orally administered at 1, 2, 4, 8, 16, and 24 hours before measuring the blood glucose, followed by oral administration of glucose 2 g/kg (body weight) and blood glucose thereof was measured every 30 minutes.

Data set [9] deals with Min 6 cell line. In words: Insulin secretion in Min 6 pancreatic β cell line (insulin ELISA). To be noted: Min 6 cells, 25 mM glucose, 0.5 ng/ml, 2 hours, FIG. 6. It is filed as cell-based, mouse. The procedure: An insulin secretion acceleration activity of the novel compound KRIBB-BH-P isolated from Quamoclit angulata was confirmed in Min 6 cell line which is a mouse pancreatic β cell tumor.
15% FBS was added to HDMEM medium and Min 6(ATCC, USA) was cultured therein. In order to induce insulin expression from Min 6 cell line, the cells were smeared on a 96 well plate at a concentration of 1×10^4 cell/plate, 15% FBS serum-free was added to DMEM high glucose medium, followed by culturing for 72 hours, washing with PBS buffer solution, and then culturing in HBSS buffer solution for 2 hours, the culture fluid was changed into HBSS buffer solution having 25 mM glucose added thereto, and the novel compound KRIBB-BH-P was added thereto so that a final concentration thereof was 0.5 ng/ml, followed by culturing for 2 hours in order to confirm whether or not the insulin expression was promoted. Here, an amount of insulin expression in cell in which insulin expression was not induced by treatment with 5.5 mM glucose was set as a reference point which is a control group, and a positive control group was prepared by adding amino-guanidine of 1 μM, acarbose of 1 μM, glimepiride of 1 mM. […] The culture fluid of Min 6 cell cultured by the above-described method was obtained and an amount of the secreted insulin was measured using Insulin ELISA kit (R&D, UK).

In data set [10] the test system is diabetic mouse. The experiment in a line: Glycated hemoglobin (HbAlc) in diabetic mice (ELISA). The format is in vivo. The conditions noted are these: oral 10 mg/kg, compared to the normal mouse control group (so in the source), FIG. 10. How it is done:
(§1) A normal mouse control group, a diabetic mouse control group, a diabetic mouse group treated with drugs (glimepiride and acarbose), and a diabetic mouse group treated with Quamoclit angulata-derived novel compound were prepared, wherein each group had five mice, and each group treated with the combination administration of the Quamoclit angulata-derived novel compound was treated by oral administration at each concentration of 0.1 mg/kg, 1 mg/kg and 10 mg/kg and raised for 12 weeks. A change in blood glucose in mice of each group was measured every 2 weeks and urine was collected every 6 weeks to measure a urinary protein concentration, and mice was raised for 12 weeks and blood thereof was collected to measure glycated hemoglobin concentration.
In order to decrease complications developed in patients receiving diabetes treatment, it is important to maintain blood glucose at an appropriate level. Since blood glucose measured at one time point may be changed by various factors, the most widely used test with a purpose of identifying a long-term change in regulation of blood glucose is glycated hemoglobin (HbAlc). […] Since the glycated hemoglobin reflects an average blood glucose value for 2 to 4 months, it is useful for identify a degree of regulation of blood glucose in a long term. […]

In data set [11] the test system is diabetic model mouse. The experiment in a line: Creatinine in blood and urine of diabetic mice (ELISA). The format is in vivo. The conditions noted are these: oral, 12 weeks, FIG. 11. An excerpt: Diabetic patients are common to have both of kidney and heart complication. Diabetes may damage kidney which filters and excretes our body's waste. Through creatinine test, a concentration of creatinine in a blood may be measured and a function of kidney may be evaluated creatinine, which is a product obtained by dehydrating creatine produced after protein is used in muscle, is present in a blood with an extremely small amount. In the case in which a function of the kidney is deteriorated, creatinine may not be excreted. Urine and blood from diabetic model mouse of each group treated by oral administration for 12 weeks were collected, and creatinine was measured using ELISA kit (R&D, USA).

Data set [12] has as its system C57BL/Ks DB/DB mouse. In words: Blood glucose in diabetic mice. It is filed as in vivo. To be noted: oral, each of 0.1 mg/kg, 1 mg/kg and 10 mg/kg, 12 weeks, FIG. 8. How it is done:
Normal mice and diabetic mice were treated with the Quamoclit angulata-derived novel compound and change in diabetic indexes including blood glucose, glycated hemoglobin, and urinary protein was confirmed.
6-week-old mice (Male C57BL/6J mouse, 20 g, Central Lab. Animal Inc., Seoul) and 6-week-old diabetic mice (Male C57BL/Ks DB/DB mouse, 20 g, Central Lab. Animal Inc., Seoul) were purchased and adopted under predetermined temperature (25° C.) and humidity (50%) for 1 week and used in an experiment.
as §1

In data set [13] the test system is alpha-glucosidase. The experiment in a line: Alpha-glucosidase activity in diabetic mice. The conditions noted are these: FIG. 18. The format is in vivo, mouse. The procedure: Activity of alpha-glucosidase of the diabetic mouse group raised under conditions of Example 7 above was measured based on the above-description.
Data set [14] relates to VEGF protein. The experiment in a line: VEGF protein expression in ARPE 19 cells induced with 30 mM glucose (VEGF ELISA). It is filed as cell-based, human. To be noted: 0.5 μg/ml, 72 hours, FIG. 5. The procedure:
In order to confirm inhibition activity of VEGF of the novel compound isolated from the Quamoclit angulata prepared in Example 1 above, ARPE 19 cell line which is human retinal pigment epithelium cell line was treated with the novel compound and expression of the VEGF protein inducting diabetic complications such as diabetic retinopathy, and the like was confirmed.
10% fetal bovine serum (FBS) was added to DMEM; F12 medium and ARPE 19 cell line (ATCC, USA) was cultured therein. In order to induce expression of the VEGF protein from ARPE 19 cell line, the cells were smeared on 60Φ plate at a concentration of 1×10^5 cell/plate, 10% FBS serum-free was added to DMEM low glucose medium, followed by culturing for 24 hours, the culture fluid was changed into a culture fluid containing 30 mM glucose in the DMEM low glucose medium, and the novel compound KRIBB-BH-P was added thereto so that a final concentration thereof was 0.5 μg/ml, followed by culturing for 72 hours in order to confirm production of VEGF protein. […]
The culture fluid of ARPE 19 cell cultured by the above-described method was obtained and an amount of the secreted VEGF was measured using VEGF ELISA kit (R&D, UK).

The subject of data set [15] is lens. The experiment in a line: Lens culture experiment, xylose-induced lens opacity. To be noted: mouse lens, 20 mM xylose, compared to positive control quercetin, FIG. 7. How it is done: In the case of diabetic, a cataract is developed at an early stage, becomes rapidly worse and eyesight is rapidly deteriorated. Diabetes promotes opaque crystalline lens. Accordingly, diabetic cataract inhibition efficiency was examined by a lens culture experiment.
Eyes of a mouse was extracted and put into an iodine solution to be disinfected and then only the lens was extracted. The extracted eyes were put into M199 medium and cultured in a cell incubator. 20 mM xylose was added to the medium to induce lens opacity and the induced lens opacity was measured using CCD camera.

For data set [16], the target named is T1, DPP-IV (Mus musculus, UniProt P28843).
T1 construct: from tissue
The experiment in a line: DPP-IV activity in diabetic mice. It is filed as in vivo. The conditions noted are these: FIG. 17. An excerpt: Both of GIP and GLP-1 are rapidly decomposed by dipeptidyl peptidase (DPP)-4 which is a series of serine protease. DPP-4 inhibition efficacy of the diabetic mouse group raised under conditions of Example 7 above was confirmed based on the above description.

Structures are written as SMILES.

T1 sequence (P28843 whole entry): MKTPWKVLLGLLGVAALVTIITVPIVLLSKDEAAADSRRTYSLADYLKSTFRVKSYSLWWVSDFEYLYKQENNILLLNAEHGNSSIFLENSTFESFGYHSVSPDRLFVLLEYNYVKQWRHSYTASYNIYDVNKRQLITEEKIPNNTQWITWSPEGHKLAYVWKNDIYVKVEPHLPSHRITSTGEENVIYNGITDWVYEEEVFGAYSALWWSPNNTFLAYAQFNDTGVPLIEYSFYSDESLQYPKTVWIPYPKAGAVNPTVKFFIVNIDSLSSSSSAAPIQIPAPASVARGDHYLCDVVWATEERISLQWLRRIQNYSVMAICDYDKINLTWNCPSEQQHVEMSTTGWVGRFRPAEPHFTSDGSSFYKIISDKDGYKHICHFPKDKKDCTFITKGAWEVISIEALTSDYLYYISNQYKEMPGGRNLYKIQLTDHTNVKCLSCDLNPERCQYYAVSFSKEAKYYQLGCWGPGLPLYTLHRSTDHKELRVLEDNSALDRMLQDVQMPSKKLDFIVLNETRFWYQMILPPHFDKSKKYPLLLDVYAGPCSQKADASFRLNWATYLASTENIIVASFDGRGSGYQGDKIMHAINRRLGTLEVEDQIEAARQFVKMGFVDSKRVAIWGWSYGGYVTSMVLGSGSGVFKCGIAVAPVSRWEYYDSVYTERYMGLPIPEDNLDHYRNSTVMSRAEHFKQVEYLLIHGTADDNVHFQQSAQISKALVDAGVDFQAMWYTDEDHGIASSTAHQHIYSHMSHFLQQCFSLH

With `CCCCCC(CCCC(O)CC(=O)O)OC1OC(COC2OC(C)C(OC3CC(O)C(O)C(C)O3)CC2O)C(O)C(O)C1OC1CC(O)C(OC2CC(O)C(OC3CC(O)C(OC)C(C)O3)C(C)O2)C(C)O1` (stereo not shown) [KRIBB-BH-P], the bilirubin value result in data set [1] is “included in a normal range”. Moreover, in data set [2], the TNF-α concentration entry is “decreased”. Also, the expression of adiponectin result in data set [3] is listed as “increased”. Besides, the “concentration ratio of insulin to glucagon” value in [4] (compared to the diabetic mouse control group) is recorded as “remarkably increased”. Further, the “concentration of plasma glucagon” value in [4] (lower than that of the group treated with the drugs, FIG. 16) is recorded as “remarkably decreased”. The “turbidity of the eye lens” value in data set [5] was “decreased”. The liver toxicity result in [6] is reported as “no liver toxicity”. In data set [7], the “insulin resistance (HOMA-IR)” value is “remarkably excellent result” and the “β-cell functionality (HOMA-beta)” value is on record as “remarkably excellent result”. For the same compound, in data set [8], the “efficacy in oral glucose tolerance test (blood glucose)” value is reported as “highest efficacy”. In addition, in data set [9], the insulin expression result is recorded as “increased”. The glycated hemoglobin value result in data set [10] is “remarkably decreased”. Moreover, in [11], the “concentration of creatinine in the blood” value is “decreased” and the “concentration of creatinine in the urine” value is “increased”. Besides, in [12], the blood glucose result is “remarkably decreased”. For the same compound, the activity of alpha-glucosidase result in data set [13] was “inhibited”. Also, the VEGF expression entry in data set [14] is “decreased”. For the same compound, the lens opacity entry in data set [15] is on record as “more inhibited”. Moreover, the “activity of DPP IV” value in [16] is “inhibited”.

The record behind these values is patent US9487596B2, “Compound isolated from quamoclit, and composition for preventing or treating diabetes containing the compound as an active ingredient” (NANOBIOTECH CO., LTD., priority 2011, dated 2016).
